Reference: patent US9969617B2, “Material system containing endoperoxide with adaption of decomposition, and applications” (priority 2009, dated 2018)

Tests used:
cancer cells = assay: killing of cancer cells, cytostatic effect confirmed using the crystal violet test; type: cell-based; details: endoperoxide in liposomes
Text: A further molecule 22 forming endoperoxide has an additional hydroxyl group which with the cage wall can form hydrogen bridges (preferably in PVB nanoparticles, in PVB films or ethyl cellulose nanoparticles), which likewise causes an increase in the decomposition times.

[1] = PVB matrix, 37° C.
Text: The entire decomposition curve is usually determined indirectly via the measurement of the fluorescence of the DMN molecules which reappear during decomposition of the endoperoxides.

| SMILES | killing of the cancer cells (cancer cells) | decomposition time of curve 27, factor longer than DMN in liquids ([1]; after renewed endoperoxide formation, slow component (curve 27)) | half-life from curve 24 greater than that for DMN in organic solvent ([1]; curve 24 versus DMN in organic solvent) | decomposition time from curve 25, factor greater ([1]; first decomposition, slow component (curve 25), compared with DMN in organic solvent) |
| --- | --- | --- | --- | --- |
| Cc1cccc2c1C1(C)C=CC2(C)OO1 (centres unmarked) [TMN endoperoxide] | killing of the cancer cells was ascertained |  |  |  |
| CC12C=CC(C)(OO1)c1ccccc12 [DMN endoperoxide, 1,4-dimethylnaphthalene endoperoxide] | not | > 30 factor | approximately 30% | ~6 factor |
